Data on 3 molecules can be found in publication PMC12679539, “Synthesis and evaluation of nitroheterocyclic aromatic adamantane amides with trypanocidal activity. Part II” (RSC Medicinal Chemistry, 2025).

A value given as a limit tells only on which side of the number the result lay.

Data set [1] concerns L. infantum promastigotes. As to the kind of experiment: Activity against Leishmania infantum promastigotes (resazurin assay). The format is cell-based, Leishmania infantum (MHOM/MA/67/ITMAP-263). The note with it: for IC50: Leishmania infantum, promastigotes, 72 h, 95% CI in brackets. How it is done:
Promastigotes from the L. infantum strain (MHOM/MA/67/ITMAP-263) were cultivated in 5 ml of Schneider's insect medium, which was supplemented with 10% heat-inactivated fetal bovine serum (FBS), 200 U ml^−1 of penicillin/streptomycin, 6 μg ml^−1 of phenol red, and 5 mM of HEPES. The cultures were maintained in an incubator at 27 °C and diluted to a concentration of 2 × 10^5 cells per ml every 5 days. For the assays the parasites used were equivalent to late/log with two or three days of culture.
The efficacy of the compounds against L. infantum promastigotes was evaluated using a resazurin-based assay. Parasites were added to 100 μl of serial dilutions of the compounds in supplemented complete medium at a cell density of 5 × 10^5 ml^−1. As a quality control, a dose–response curve with the antileishmanial drug miltefosine was included in all assays. The final volume of each assay was 200 μl per well, and each condition was tested in duplicate. After a 72-hour incubation under specific conditions for each parasite, 20 μl of a 0.5 mM resazurin solution was added, and the plates were incubated for an additional 4 hours under the same conditions. Fluorescence was measured at 544 nm for excitation and 590 nm for emission using a Synergy 2 Multi-Mode Reader (Biotek, Winooski, VT, USA). Results were expressed as the percentage of parasite growth inhibition compared to controls (untreated parasites) and represent the average of at least three independent experiments. The effect was evaluated by determining the IC50 value (the concentration required to inhibit 50% growth), calculated using non-linear regression curves via GraphPad Prism version 8.1.1 for Windows (GraphPad Software, San Diego, CA, USA).

Data set [2] is described as follows: Cytotoxicity on THP-1-derived macrophages (MTT assay). The format is cell-based. The settings on record: human, THP-1-derived macrophages (PMA-differentiated), value or interval. The procedure:
The THP-1 cell line, a human leukemia line (ATCC® TIB-202™), was cultured in RPMI-1640 medium supplemented with 10% heat-inactivated fetal bovine serum (FBS), 2 mM. L-Glutamine, 100 IU mL^−1 penicillin/streptomycin, and 20 mM HEPES. The cells were maintained in a humidified incubator at 37 °C with 5% CO2. Subculturing was performed every three days, using 20 mL of media at a concentration of 2 × 10^5 cells per mL in a T75 flask. All cell culture reagents were purchased from Lonza Bioscience (Morrisville, NC).
The cytotoxicity of the compounds on THP-1-derived macrophages was evaluated using the colorimetric MTT assay (3-(4,5-dimethylthiazol-2-yl)-2,5-diphenyltetrazolium bromide), as described in Magoulas et al. (2021).[28] THP-1 cells were suspended in complete RPMI medium at a density of 1 × 10^6 cells per mL, and 100 μL of this suspension was seeded into each well of a 96-well plate. The cells were differentiated into macrophages by adding 40 ng mL^−1 of phorbol-myristate 13-acetate (PMA, Sigma, Saint Louis, MI, USA) for 24 hours, followed by replacement with fresh medium for an additional 24 hours. Subsequently, the cells were incubated with 100 μL of various compounds, diluted in complete RPMI medium, at concentrations ranging from 100 to 12.5 μM. Each condition was tested in triplicate. After 72 hours of incubation at 37 °C with 5% CO2, the medium was removed, and 200 μL of a 0.5 mg mL^−1 MTT solution, diluted in RPMI, was added to each well. The plates were incubated for an additional 4 hours. Following this incubation, 160 μL of the medium was removed and replaced with 160 μL of 2-propanol. Absorbance was measured at 570 nm using a Synergy 2 Multi-Mode Reader (Biotek, Winooski, VT, USA). Cytotoxicity was determined by presenting the CC50 (the concentration of the drug that reduces cell viability by 50%) interval or by calculating the CC50 value through non-linear regression analysis using GraphPad Prism version 8.1.1 for Windows (GraphPad Software, San Diego, CA, USA). The results represent the average of at least three independent experiments.

The test system of data set [3] is bloodstream-form Trypanosoma brucei. The data set is described as follows: Activity against bloodstream-form Trypanosoma brucei (Alamar Blue growth inhibition). The format is cell-based, Trypanosoma brucei (strain 427). The settings on record: for IC50 / IC90: Trypanosoma brucei, bloodstream form; for IC50: concentration that inhibits growth by 50%, read-out: T. brucei IC50; for IC90: concentration that inhibits growth by 90%, read-out: T. brucei IC90; for S.I. (selectivity index): ratio of IC50 values obtained with L6 cells and T. brucei. The procedure: Bloodstream form T. brucei (strain 427) were cultured at 37 °C in modified Iscove's medium. Trypanocidal activity was assessed by growing parasites in microtiter plates in the presence of various drug concentrations. […] The plates were incubated for 48 hours at 37 °C and 20 μL Alamar Blue was then added to each well. After an additional overnight incubation, the fluorescence was determined using a Gemini fluorescent plate reader (Molecular Devices). Inhibition of growth was calculated by comparison with control values and IC50 and IC90 values were determined in triplicate using linear regression analysis.
(In general: Resazurin is reduced to fluorescent resorufin, in cell work by metabolically active cells.)

The next data set has as its system T. cruzi epimastigotes. As to the kind of experiment: Activity against Trypanosoma cruzi epimastigotes (Alamar Blue growth inhibition). The format is cell-based, Trypanosoma cruzi (strain CL Brener). The settings on record: CL Brener. The procedure: Trypanocidal activity was assessed by growing parasites in microtiter plates in the presence of various drug concentrations. […] The plates were incubated for 4 days at 28 °C and 20 μL Alamar Blue (Biosource UK Ltd) was then added to each well. After an additional 3 days incubation, the fluorescence was determined using a Gemini fluorescent plate reader (Molecular Devices). Inhibition of growth was calculated by comparison with control values and IC50 and IC90 values were determined in triplicate using linear regression analysis.

For data set [4], the system named is T. cruzi intracellular amastigotes. The data set is described as follows: microbe, parasite or virus in culture. The class given is cell-based, Trypanosoma cruzi CL Brener PpyRE9h:mScarlet. The note with it: Trypanosoma cruzi, 120 h; in HeLa cells, 5 days. The procedure: Assays were performed in 96-well black (clear bottom) microtitre plates (Corning Inc.). HeLa ^† cells were seeded at 10^4 per well, incubated for 3 days, and then infected with T. cruzi CL Brener PpyRE9h : mScarlet[25] culture form trypomastigotes (1 : 1 multiplicity of infection). After 16 hours, extracellular parasites were removed by washing in growth medium (×3), test compounds were added, and the plates incubated for 5 days. Fluorescence intensities were then determined using a BMG FLUOstar Omega plate reader (ex 545 nm, em 590 nm), and the data analysed using GraphPad Prism 9.0 software. The values were expressed as IC50/90 ± SD and are the mean of triplicate experiments.

One may read the IC50 as the concentration needed to halve the response being measured. As usually defined, the CC50 is the concentration at which the toxic effect on the cells reaches its halfway point. In general, IC90 refers to the concentration at which the effect reaches the 90% level. Consider `O=C(Cc1ccc(C23CC4CC(CC(C4)C2)C3)cc1)NCCn1cnc([N+](=O)[O-])n1` [6b, 2-[4-(1-Adamantyl)phenyl]-N-[2-(3-nitro-1H-1,2,4-triazol-1-yl)ethyl]acetamide], for which the IC50 came out at 0.49 µM in data set [1], 420 ± 70 nM in data set [3], 200 ± 30 nM in the data set with T. cruzi epimastigotes and 1830 ± 700 nM in data set [4]. In addition, the CC50 at 72 h in data set [2] lay within 50000 to 100000 nM. Besides, the IC90 stood at 1800 ± 200 nM in data set [3], 660 ± 40 nM in the data set on T. cruzi epimastigotes and 4290 ± 310 nM in data set [4]. Further, in data set [3], the “S.I. (selectivity index)” value is 72.

Regarding `O=C(CCc1ccc(C23CC4CC(CC(C4)C2)C3)cc1)NCCn1cnc([N+](=O)[O-])n1` [6c, 3-[4-(1-Adamantyl)phenyl]-N-[2-(3-nitro-1H-1,2,4-triazol-1-yl)ethyl]propanamide], the IC50 in data set [1] amounted to 0.42 µM; in data set [3] it was 200 ± 20 nM; in the data set with T. cruzi epimastigotes, 450 ± 20 nM; in data set [4], 1580 ± 70 nM. The “SI (promastigotes) CC50/Li IC50” value in data set [1] (THP-1 CC50 / L. infantum promastigote IC50) is “SI > 238”. For the same molecule, the CC50 at 72 h in data set [2] was > 100000 nM. Moreover, the IC90 in data set [3] was determined as 320 ± 10 nM; in the data set on T. cruzi epimastigotes, 1200 ± 20 nM; in data set [4] it was 3230 ± 850 nM. In addition, the “S.I. (selectivity index)” value in data set [3] was 114.

In the case of `O=C(Cc1ccc(C23CC4CC(CC(C4)C2)C3)cc1)NCCCn1cnc([N+](=O)[O-])n1` [6e, 2-[4-(1-Adamantyl)phenyl]-N-[3-(3-nitro-1H-1,2,4-triazol-1-yl)propyl]acetamide], the IC50 in data set [1] was determined as 0.31 µM; in data set [3], 240 ± 10 nM; with T. cruzi epimastigotes, 140 ± 10 nM; in data set [4], 2480 ± 310 nM. Further, the CC50 at 72 h in data set [2] was 50000 to 100000 nM. The IC90 in data set [3] is 400 ± 10 nM; in the data set on T. cruzi epimastigotes, 270 ± 20 nM; in data set [4], 7080 ± 470 nM. For the same molecule, the “S.I. (selectivity index)” value in data set [3] is reported as 96.
